Measured values published in US5219870A, “Omeprazole compositions designed for administration in rectum” (priority 1990, dated 1993).
Several values for one entry are separate records, joined by “and”; a condition that tells them apart may be missing. Equal entries are not always repeated. Where two headings read alike, the source gives them in different places.

How the values were obtained:
[1] = OMP Stability Based Upon Kinds of Base (colour change at room temperature); conditions: Reference 1 result in words
[2] = OMP Stability Based Upon Kinds of Stabilizer (colour change under severe condition); assay type: physicochemical; conditions: Reference 2 result in words
Source text: As shown in the following table 2, PEG 4000 and Witepsol H-15 were used as bases for the manufacture of said composition; as a basic amino acid, arginine was used. The stability of said manufactured compositions was observed under a severe condition. As a diffusing medium, micro crystalline cellulose (brandname: Avicel) was used, while using sodium laurylsulfate as a releasing agent.

[3] = Animal Experiment: serum concentration and bioavailability of OMP in rabbits (I.V., oral, rectum); assay type: in vivo, albino rabbits; conditions: 10 mg/kg; for bioavailability: BA (bioavailability)
Description: Using the same method as in Reference 1, one composition using water-Soluble base was manufactured by the following formula; 20 mg OMP. 10 mg arginine and 970 mg PEG 4000, and another composition using lipid-soluble base was manufactured by the following formula; 20 mg OMP, 10 mg arginine and 970 mg Witepsol H-15.
Object: 36 male healthy albino rabbits weighing 1.5-2.3 kg.
Method: before fasting, feed and water were freely provided for eating and rabbits were confined to a wire-box while giving them feed in a constant condition for 4 days. After that, their fasting was made for 48 hours (during the fasting, the rabbits could freely drink 10% dextrose solution.)
For comparison test, 4 mg/ml I.V. solution was manufactured in advance by mixing 400 mg OMP, 20 ml polyethylene glycol 4000, and 80 ml buffer solution of 0.1 mol sodium bicarbonate. 5 ml solution per rabbit was administered to its ear's vein.
Then, through the esophagus of rabbit, Levine tube in diameter of 5 mm was inserted by 30 cm for administering oral OMP capsules wrapped in paraffin film. To reduce friction, vaseline was applied around the surface of the tube and through a syringe connected to the opposite end of the tube, 30 ml water was injected and, by the water pressure, paraffin film was broken to administer the capsule into intestine.
As the feces of the rabbit were not completely removable even in 48-hour fasting, Levine tube having a thickness of 5 mm was used to thrust feces up to the upper part of rectum by 15 cm for the separate of administration of said two kinds of compositions. Then, inserted into the anus, was a cotton wrapped in vinyl tape having a length of 2 cm, fixed it with a clip so as to prevent any leaking of drug solution.
By using xylene, the venous blood vessel of rabbit's ear was extended to collect some venous blood with a heparinized 3 cc syringe. Said syringe was already treated by soaking its wall with 1000 I.U. heparin. Then, 3 cc of said collected blood sample (10,000 rpm, 10 secs) was centrigued to obtain 1 ml plasma.
Add 1 ml of said plasma sample to […] intra-standard solution, 3 ml dichloromethane, 3 ml hexaine and 2 ml of 0.1 mol sodium bicarbonate buffer solution. Then, after agitation for 30 secs, centrifuge this mixture in 2000 rpm for 5 mins to separate into organic layer (upper layer) and plasma layer (lower layer).
Put the centrifuged test tube into ice-contained methanol to freeze the plasma layer. Thereafter, take 5 ml organic solvent from the said solution and, under reduced pressure, evaporate the organic solvent by nitrogen gas. Then add 300 μl mobile phase into the residue and after agitation for 30 secs again, centrifuge the mixture in 2000 rpm for 2 mins and conduct the assay by the HPLC analysis (injected 50 μl) through the comparison of height ratio with standard solution.
Cmax is a peak serum concentration;
AUC is an area under the curve describing serum concentration-time; and […]

[4] = cited from earlier work
[5] = rabbit, in vivo, po, serum concentration

In the case of `N=C(N)NCCC[C@H](N)C(=O)O` [arginine], the “stability / contribution to stabilization” value [1] was “stability was more increased” and the stabilizing effect [2] was “better stabilizing effect than sodium phosphate”.
With `COc1ccc2[nH]c([S+]([O-])Cc3ncc(C)c(OC)c3C)nc2c1` (centres unmarked) [OMP, Omeprazole] the serum concentration ([3]; I.V., 20 mg OMP per 2 kg, 1 min, individual animals) was 110.0 µg/mL and 100.0 µg/mL and 91.5 µg/mL and 99.0 µg/mL, the serum concentration ([3]; I.V., 20 mg OMP per 2 kg, 5 min, individual animals) was 47.8 µg/mL and 63.3 µg/mL and 58.7 µg/mL and 56.5 µg/mL and the serum concentration ([3]; I.V., 20 mg OMP per 2 kg, 15 min, individual animals) was 23.8 µg/mL and 36.8 µg/mL and 24.5 µg/mL. For the same compound, the serum concentration ([3]; I.V., 20 mg OMP per 2 kg, 30 min, individual animals) was 21.0 µg/mL and 16.7 µg/mL and 16.2 µg/mL, the serum concentration ([3]; I.V., 20 mg OMP per 2 kg, 60 min, individual animals) was 9.1 µg/mL and 11.7 µg/mL and 6.5 µg/mL and the serum concentration ([3]; I.V., 20 mg OMP per 2 kg, 120 min, individual animals) was 4.6 μg/ml and 4.2 μg/ml and 4.4 μg/ml (2×). The serum concentration ([3]; I.V., 20 mg OMP per 2 kg, 180 min, individual animals) was 2.2 µg/mL and 2.1 µg/mL and 2.0 µg/mL, the serum concentration ([3]; oral, 20 mg OMP per 2 kg, 1 hr, individual animals, 60 min) was 0.300 µg/mL and 0.492 µg/mL and 0.270 µg/mL and 0.295 µg/mL and the serum concentration ([3]; oral, 20 mg OMP per 2 kg, 4 hr, individual animals, 240 min) was 0.375 µg/mL and 0.376 µg/mL. For the same compound, the serum concentration ([3]; oral, 20 mg OMP per 2 kg, 5 hr, individual animals, 300 min) was 0.432 µg/mL, the serum concentration ([3]; oral, 20 mg OMP per 2 kg, 7 hr, individual animals, 420 min) was 0.450 µg/mL and 0.409 µg/mL and 0.506 µg/mL and 0.400 µg/mL and the serum concentration ([3]; oral, 20 mg OMP per 2 kg, 9 hr, individual animals, 540 min) was 0.360 µg/mL and 0.373 µg/mL and 0.365 µg/mL. For the same compound, the serum concentration ([3]; oral, 20 mg OMP per 2 kg, 11 hr, individual animals, 660 min) was 0.038 µg/mL and 0.070 µg/mL and 0.171 µg/mL and 0.176 µg/mL and 0.053 µg/mL, the Tmax ([3]; oral, 20 mg OMP per 2 kg, individual animals) was 5 h and the AUC ([3]; rabbit, in vivo, iv) was 33200 ng·h/mL. The AUC ([3]; rabbit, in vivo, iv, average) was 35200 ng·h/mL, the concentration at 0.25 h ([3]; rabbit, in vivo, iv, serum concentration) was 16400 ng/mL and the serum concentration ([3]; rabbit, in vivo, po, 4 h) was 0.531 µg/mL. It also gave an AUC ([3]; rabbit, in vivo, po) of 6070 ng·h/mL, an AUC ([3]; rabbit, in vivo, po, average) of 5980 ng·h/mL and a bioavailability ([3]; rabbit, in vivo, po) of 17.2%. For the same compound, the bioavailability ([3]; rabbit, in vivo, po, average) was 17%, the Cmax ([3]; rabbit, in vivo, po) was 591 ng/mL and the Cmax ([3]; rabbit, in vivo, po, average) was 598 ng/mL. It also gave a concentration at 4 h [3, 5] of 591 ng/mL, a concentration at 5 h [3, 5] of 527 ng/mL and a concentration at 9 h [3, 5] of 356 ng/mL. For the same compound, the concentration at 1 min ([3]; rabbit, serum, iv, I.V., 20 mg OMP per 2 kg, 1 min, average, read-out: serum concentration, average) was 101000 ng/mL, the concentration at 1 min ([3]; rabbit, serum, iv, I.V., 20 mg OMP per 2 kg, 1 min, individual animals, read-out: serum concentration) was 104000 ng/mL and the concentration at 5 min ([3]; rabbit, serum, iv, I.V., 20 mg OMP per 2 kg, 5 min, average, read-out: serum concentration, average) was 54400 ng/mL. The concentration at 5 min ([3]; rabbit, serum, iv, I.V., 20 mg OMP per 2 kg, 5 min, individual animals, read-out: serum concentration) was 45900 ng/mL, the concentration at 0.25 h ([3]; rabbit, serum, iv, I.V., 20 mg OMP per 2 kg, 15 min, average, read-out: serum concentration, average) was 25600 ng/mL and the concentration at 0.25 h ([3]; rabbit, serum, iv, I.V., 20 mg OMP per 2 kg, 15 min, individual animals, read-out: serum concentration) was 26400 ng/mL. For the same compound, the concentration at 0.5 h ([3]; rabbit, serum, iv, I.V., 20 mg OMP per 2 kg, 30 min, average, read-out: serum concentration, average) was 16700 ng/mL, the concentration at 0.5 h ([3]; rabbit, serum, iv, I.V., 20 mg OMP per 2 kg, 30 min, individual animals, read-out: serum concentration) was 12800 ng/mL and the concentration at 1 h ([3]; rabbit, serum, iv, I.V., 20 mg OMP per 2 kg, 60 min, average, read-out: serum concentration, average) was 8800 ng/mL. It also gave a concentration at 1 h ([3]; rabbit, serum, iv, I.V., 20 mg OMP per 2 kg, 60 min, individual animals, read-out: serum concentration) of 7800 ng/mL, a concentration at 2 h ([3]; rabbit, serum, iv, I.V., 20 mg OMP per 2 kg, 120 min, average, read-out: serum concentration, average) of 4700 ng/mL and a concentration at 2 h ([3]; rabbit, serum, iv, I.V., 20 mg OMP per 2 kg, 120 min, individual animals, read-out: serum concentration) of 5800 ng/mL. It also gave a concentration at 3 h ([3]; rabbit, serum, iv, I.V., 20 mg OMP per 2 kg, 180 min, average, read-out: serum concentration, average) of 2100 ng/mL, a concentration at 3 h ([3]; rabbit, serum, iv, I.V., 20 mg OMP per 2 kg, 180 min, individual animals, read-out: serum concentration) of 2000 ng/mL and a concentration at 11 h ([3]; rabbit, serum, po, 20 mg OMP per 2 kg, 11 hr, average) of 102 ng/mL. For the same compound, the concentration at 1 h ([3]; rabbit, serum, po, oral, 20 mg OMP per 2 kg, 1 hr, average, read-out: serum concentration, average) was 330 ng/mL, the concentration at 1 h ([3]; rabbit, serum, po, oral, 20 mg OMP per 2 kg, 1 hr, individual animals, read-out: serum concentration) was 293 ng/mL and the concentration at 2 h ([3]; rabbit, serum, po, oral, 20 mg OMP per 2 kg, 2 hr, average, read-out: serum concentration, average) was 455 ng/mL. For the same compound, the concentration at 2 h ([3]; rabbit, serum, po, oral, 20 mg OMP per 2 kg, 2 hr, individual animals, read-out: serum concentration) was 369 ng/mL, the concentration at 3 h ([3]; rabbit, serum, po, oral, 20 mg OMP per 2 kg, 3 hr, average, read-out: serum concentration, average) was 413 ng/mL and the concentration at 3 h ([3]; rabbit, serum, po, oral, 20 mg OMP per 2 kg, 3 hr, individual animals, read-out: serum concentration) was 425 ng/mL. It also gave a concentration at 4 h ([3]; rabbit, serum, po, oral, 20 mg OMP per 2 kg, 4 hr, average, read-out: serum concentration, average) of 477 ng/mL, a concentration at 4 h ([3]; rabbit, serum, po, oral, 20 mg OMP per 2 kg, 4 hr, individual animals, read-out: serum concentration) of 410 ng/mL and a concentration at 5 h ([3]; rabbit, serum, po, oral, 20 mg OMP per 2 kg, 5 hr, average, read-out: serum concentration, average) of 550 ng/mL. It also gave a concentration at 5 h ([3]; rabbit, serum, po, oral, 20 mg OMP per 2 kg, 5 hr, individual animals, read-out: serum concentration) of 447 ng/mL, a concentration at 7 h ([3]; rabbit, serum, po, oral, 20 mg OMP per 2 kg, 7 hr, average, read-out: serum concentration, average) of 457 ng/mL and a concentration at 7 h ([3]; rabbit, serum, po, oral, 20 mg OMP per 2 kg, 7 hr, individual animals, read-out: serum concentration) of 521 ng/mL. It also gave a concentration at 9 h ([3]; rabbit, serum, po, oral, 20 mg OMP per 2 kg, 9 hr, average, read-out: serum concentration, average) of 357 ng/mL, a concentration at 9 h ([3]; rabbit, serum, po, oral, 20 mg OMP per 2 kg, 9 hr, individual animals, read-out: serum concentration) of 341 ng/mL and a Tmax ([3]; rabbit, serum, po, oral, 20 mg OMP per 2 kg, individual animals, read-out: Tmax) of 4 h. For the same compound, the half life ([4]; neutral pH) was “about 14 hrs”, the decomposition ([4]; pH less than 4.0) was “rapid decomposition” and the stability ([4]; pH more than 7.0) was “very stable”.
